# Measured values: publication PMC5033595, “The Effectiveness of Natural Diarylheptanoids against Trypanosoma cruzi: Cytotoxicity, Ultrastructural Alterations and Molecular Modeling Studies” (PLoS ONE, 2016)
# Where two headings read alike, the source gives them in different places.
# Key:
# [1] = test system: T. cruzi epimastigotes (Dm28c strain); test: Flow cytometry analysis of the cell cycle (DNA content); assay type: cell-based, Trypanosoma cruzi; conditions: 48 h
# Protocol: The cultures treated with CUR, DMC and BDMC at a concentration of 100 μM led to an accumulation of, respectively, 45%, 52% and 40% of cells in the G2 phase, while in the non-treated cells, G2 population was 20%. The ability to arrest cells in the G2/M phase is a characteristic of microtubule-interacting agents. For this reason, we used paclitaxel as positive control, a known microtubule drug that is active against Trypanosomatidae organisms. Consistently with its action on microtubules, paclitaxel promoted an accumulation of 57% of cells in the G2 phase (Fig 9). Thus, the effects of curcuminoids in the cell cycle can be explained, at least partially, by the disturbance of microtubules, in agreement with the mechanism of interaction with tubulin proposed by the electron microscopy experiments. The arising of sub-G1 peaks possibly correspond to apoptotic cells, what is more prominent in paclitaxel than in the curcuminoids treated cultures and the small sub-G1populations indicate that curcuminoids promote low apoptosis (Fig 9).
# Fig 9 Percentage of cells in different phases of cell cycle. Cells were treated with CUR and DMC at 10, 50 and 100 μM concentrations and with 100 μM BDMC. Paclitaxel (20 μM) was employed as positive control, and DMSO 0.02% as negative control. Results are the mean of the triplicates with standard deviation represented by error bars. Statistical significance relative to control * P<0.05, ** P<0.01 and *** P<0.001. The data shown were obtained from three independent experiments.
# Epismatigotes forms of T. cruzi (Dm28c strain) were grown at 28°C in BHI medium at a concentration of 2x10^6 cells.mL^-1 in 12-well culture plates (TPP™, Switzerland). Test compounds (CUR, DMC and BMDC) were added in triplicate at concentrations of 10, 50 and 100 μM. The controls used were the vehicle (DMSO 0.02%) and paclitaxel at 20 μM concentration. After 48 h of incubation, parasites were fixed in ethanol 70% for 30 min at -20°C. Next, cells were centrifuged at 200 rcf for 8 min and washed with PBS. Then, the samples were incubated for 10 min with a permeabilization buffer (0.2 M Na2HPO4 and 0.005% Triton-X, pH 7.8). Finally, cells were centrifuged at 200 rcf for 8 min and stained in a solution of 50 μg.mL^-1 propidium iodide (PI) and 0.2 μg.mL^-1 RNAse for 30 min at room temperature. DNA content was analyzed measuring PI fluorescence in a BD […] cytometer (Becton Dickinson Company, USA) at 488 nm excitation wavelength and 585/40 nm emission filter.
# Supplementary file pone.0162926.s006.tif: S6 Fig Representative fluorescence histograms showing DNA content of cell-cycle phases (Sub-G1, G1, S and G2) of parasites (Dm28c strain). […]
# [2] = test system: T. cruzi epimastigotes (Dm28c strain); test: Anti-epimastigote effect (proliferation/survival, counting of viable forms); assay type: cell-based, Trypanosoma cruzi; conditions: for activity on proliferation/survival of epimastigotes (in words): 100, 50, 25 and 2 μM; for IC50: read-out: IC50 T. cruzi
# Protocol: The four natural compounds (CUR, DMC, BDMC and CC) were evaluated on the proliferation/survival of T. cruzi epimastigotes (Dm28c strain) in four different concentrations (100, 50, 25 and 2 μM). The parasites were cultivated for 7 days in BHI (Brain Heart Infusion) medium supplemented with 10% (v/v) fetal bovine serum. Controls were incubated solely and with 0.02% DMSO and the cultures were readily incubated with the natural compounds. Mobile epimastigote forms were considered as viable forms, and were counted on Neubauer chambers using phase contrast microscopy.
# Epimastigotes of T. cruzi (Dm28c strain) were cultured at 27°C in Bacto™ Brain Heart infusion (BHI, Becton Dickinson Company, USA) supplemented with 10 μg.mL^-1 hemin, 0.02 g.L^-1 folic acid (from Sigma-Aldrich, USA) and 10% (v/v) of heat inactivated fetal bovine serum (FCS, Gibco/Life technologies).
# Epimastigotes forms of T. cruzi, Dm28c strain (2x10^5 cells.mL^-1), were grown for 7 days in BHI culture medium at 26°C. Some cultures were treated with curcumin (CUR), demethoxycurcumin (DMC), bisdemethoxycurcumin (BDMC) or cyclocurcumin (CC) at concentrations of 100, 50, 25 and 2 μM. Viable forms were counted in Neubauer chambers under phase contrast microscopy using 40X objectives. Data representing three independent experiments.
# Supplementary file pone.0162926.s002.tif: S2 Fig T. cruzi epimastigotes (Dm28c strain) were cultivated for 7 days in BHI (Brain Heart Infusion) culture medium supplemented with hemin, folic acid and 10% fetal bovine serum at 26°C, and readily treated with CUR, DMC, BDMC and CC at the indicated concentrations ranging from 2 to 100μM. Viable forms were counted on Neubauer chambers under phase microscopy at the seventh day. The data presented were obtained from three representative independent experiments. (TIF) Click here for additional data file.
# [3] = test system: MCF-7 tumor cells; set-up: method as in PMID 9714342; conditions: cited from earlier work
# [4] = test system: Sterol 14α-demethylase (CYP51); test: Sterol content (lanosterol/ergosterol ratio) of treated epimastigotes by RP-HPLC; assay type: cell-based, Trypanosoma cruzi
# Protocol: Since the detachment of the flagellar membrane was reported in T. cruzi and L. amazonensis treated with sterol biosynthesis inhibitors, the results obtained in microscopy study led us to investigate the sterol content of epimastigotes treated with CUR. Sterol 14α-demethylase (CYP51) is the enzyme involved in conversion of lanosterol to ergosterol in the parasite cell by oxidative removal of the sterol 14α-methyl group, being a key step in the biosynthesis of cell membrane 14 α-demethylated sterols and consequently in the maintenance of the cell viability. Thus, this enzyme is a promising target for chemotherapy of Chagas disease. The method reported by Pinto and co-workers for steroid determination on fungi was adapted to T. cruzi epimastigotes. After saponification followed by n-hexane extraction of a T. cruzi epimastigote pellet cultivated in the presence of two different concentrations of CUR, the organic layer was concentrated and submitted to RP-HPLC analysis (as shown in S5 Fig). […] It seems that in both treatments the parasite membrane-cytoskeleton linkage has been compromised.
# 6x10^6 epimastigotes of T. cruzi (Dm28c strain) were grown for 7 days in 30mL of BHI culture medium at 26°C. Some cultures were treated with curcumin (CUR, 5 and 10 μM), posaconazole (0.05 and 0.1 μM). The cultures were submitted to centrifugation at 2100 rpm for 10 minutes. […]
# [5] = test system: Peritoneal macrophages (Mø); assay type: cell-based; conditions: murine peritoneal macrophages, 48 h, trypan blue
# Protocol: (§1) The natural products have been subjected to a cytotoxicity assay on two distinct murine cell types. These compounds were tested upon macrophages (Mø), which are host cells during T. cruzi infection and splenocytes as lymphocytes are highly sensitive to external agents. The maintenance of cell viability at presence of the curcuminoids may indicate their low toxicity to mammalian cells. Peritoneal macrophages harvested from Balb/c mice were treated for 48 hours with concentrations of each test substance (S3 Fig). Splenocyte viability assays were performed in cells obtained from BALB/c mice and grown from a 5x10^5 cells.mL^-1 suspension (S4 Fig). For both cell types, viability was assessed by the trypan blue dye exclusion method, because colorimetric methods such as XTT were not suitable due to influence of the curcumin chromophoric properties. The results obtained on the evaluation of CUR, DMC, BDMC and CC against T. cruzi epimastigotes as well as the results of two host cell types treated with a 100 μM concentration of each compound are summarized in Table 1. […]
# Supplementary file pone.0162926.s003.tif: S3 Fig Peritoneal macrophages obtained from BALB/c mice were cultured in triplicates at concentration of 5x10^5cells.mL^-1. […] Cell viability was assessed by exclusion method using trypan blue. […]
# [6] = test system: Splenocytes; assay type: cell-based; conditions: murine splenocytes, 48 h, trypan blue
# Protocol: as §1, with “properties.” for “properties. The results obtained on the evaluation of CUR, DMC, BDMC and CC against T. cruzi epimastigotes as well as the results of two host cell types treated with a 100 μM concentration of each compound are summarized in Table 1.”
# Splenic lymphocytes were obtained from male BALB/c mice and plated at 5x10^5 cells.mL^-1 in triplicate. […] Viability was evaluated by the exclusion method using trypan blue and the data shown is representative of three independent experiments.
# Supplementary file pone.0162926.s004.tif: S4 Fig Lymphocytes were obtained from the spleen of BALB/c mice and cultivated at concentration of 5x10^5 cells.mL^-1. […] Cell viability was assessed by exclusion method using trypan blue. […]
# [7] = Trypanosoma cruzi, 168 h, epimastigotes, Dm28c strain, 7 days
Molecule,"cells in the G2 phase ([1]; 100 μM, non-treated cells 20%) [%]",activity on proliferation/survival of epimastigotes (in words) ([2]; 7 days),"IC50 [2, 7] [µM]",other results
"O=C(/C=C/c1ccc(O)cc1)CC(=O)/C=C/c1ccc(O)cc1 [BDMC, bisdemethoxycurcumin]",40,active,45.3,–
"COc1cc(/C=C/C2=CC(=O)CC(c3ccc(O)c(OC)c3)O2)ccc1O (centres unmarked) [CC, cyclocurcumin]",–,inactive,> 100,inhibition of MCF-7 tumor cells proliferation [3]: inactive
"COc1cc(/C=C/C(=O)CC(=O)/C=C/c2ccc(O)c(OC)c2)ccc1O [CUR, Curcumin]",45,active,–,"lanosterol/ergosterol ratio vs untreated control ([4]; CUR 5 and 10 μM, 7 days): no significant difference; IC50 ([2]; Trypanosoma cruzi, 168 h): 10.1 µM"
"CC(=O)O[C@H]1C(=O)[C@@]2(C)[C@H]([C@H](OC(=O)c3ccccc3)[C@]3(O)C[C@H](OC(=O)[C@H](O)[C@@H](NC(=O)c4ccccc4)c4ccccc4)C(C)=C1C3(C)C)[C@]1(OC(C)=O)CO[C@@H]1C[C@@H]2O [paclitaxel, reference compound]",–,–,–,"cells in the G2 phase ([1]; 20 μM, positive control): 57%"
"CC[C@@H]([C@H](C)O)n1ncn(-c2ccc(N3CCN(c4ccc(OC[C@@H]5CO[C@@](Cn6cncn6)(c6ccc(F)cc6F)C5)cc4)CC3)cc2)c1=O [posaconazole, reference compound]",–,–,–,"lanosterol/ergosterol ratio vs untreated control ([4]; posaconazole 0.05 and 0.1 μM, positive control): significant increase"
demethoxycurcumin [DMC],52,active,–,"LD50 Mø [5]: > 100 µM; LD50 Splenocytes [6]: > 100 µM; IC50 ([2]; epimastigotes, Dm28c strain, 7 days): 11.1 µM"
